Assay results from US6150341A, “Vitamin B12 derivatives and methods for their preparation” (Biotch Australia Pty Limited, priority 1998, dated 2000).

The substances below were run against T1, Porcine Intrinsic Factor (Sus scrofa, UniProt A0A8D1ENZ1) (assay: Relative IF affinity of 5'O-VB12 derivatives (57CoVB12 competition, BSA-coated charcoal separation)). Settings: inhibition of 57CoVB12 binding to porcine IF compared to unmodified VB12; 20 minutes at room temperature, pH 7.5.
T1 construct: purchased Sigma
Procedure: Determination of the relative IF affinity of various 5'O-VB12 derivatives.
IF Buffer: BSA (VB12 and IF deficient) BSA (Sigma A-3902) was dissolved at 1 mg/ml in 0.1M potassium phosphate buffer pH 7.5.
^57 CoVB12 : ^57 Co stock (50 μl) (Kodak) was diluted into 50 ul of stock in 25 ml of IF buffer to give a solution of 1 ng ^57 CoVB12 /25 ml. 250 ng cold VB12 was added to 25 ml of hot ^57 CoVB12 solution to give a 10 ng/ml solution.
Porcine Intrinsic Factor: Porcine IF (Sigma) was dissolved in IF buffer at 200 Units/ml, and frozen in 500 ul lots (100 IU aliquots) until required.
BSA-coated charcoal: BSA (1%) was added to an equal volume of 5% charcoal solution of 0.1 M potassium phosphate buffer pH 7.5 and stirred gently for 30 minutes.
Ten fold up dilutions of VB12 or VB12 derivatives were prepared down to 1 ng/ml in IF buffer. An equal volume of diluted IF was added to each sample and incubated for 20 minutes at room temperature. An equal volume of the BSA-coated charcoal was added to each sample, which was mixed prior to centrifugation. Following centrifugation the supernatant and pellet of each sample were separated and ^57 CoVB12 determined by counting in a gamma counter. Data is represented as the % inhibition of ^57 CoVB2 binding when compared to unmodified VB12.

T1 sequence (A0A8D1ENZ1 29-425): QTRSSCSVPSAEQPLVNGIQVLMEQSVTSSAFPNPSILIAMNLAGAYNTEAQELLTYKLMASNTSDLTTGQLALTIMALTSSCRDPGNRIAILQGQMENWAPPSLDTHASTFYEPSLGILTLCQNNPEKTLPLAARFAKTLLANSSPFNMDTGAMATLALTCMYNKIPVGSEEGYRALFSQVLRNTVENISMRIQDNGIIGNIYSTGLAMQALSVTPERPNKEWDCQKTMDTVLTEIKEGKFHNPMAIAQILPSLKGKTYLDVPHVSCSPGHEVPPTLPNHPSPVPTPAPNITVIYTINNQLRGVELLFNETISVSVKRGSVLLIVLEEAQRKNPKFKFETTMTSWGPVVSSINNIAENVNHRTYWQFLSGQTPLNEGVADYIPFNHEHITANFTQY

Substance | % binding relative to vitamin B12
5'OH-(adipylhydrazidyl)-VB12 [adiphylhydrazidyl-5'O-VB12] | 29%
5'OH-(aminobutyl)-VB12 [aminobutyl-5'O-VB12] | 27%
5'OH-(aminoethyl)-VB12 [aminoethyl-5'O-VB12] | 40%
5'OH-(aminohexyl)-VB12 [aminohexyl-5'O-VB12] | 25%
5'OH-(tetradecyl)-VB12 [tetradecyl-5'O-VB12] | 4.2%

Further lines, results first:

% binding relative to vitamin B12 | Substance
31% | 5'OH-(aminododecanyl)-VB12 [aminododecanyl-5'O-VB12]
35% | 5'OH-(dodecyl)-VB12 [dodecyl-5'O-VB12]
0.78% | 5'OH-(hexadecyl)-VB12 [hexadecy-5'O-VB12]
49% | 5'OH-(hexyl)-VB12 [hexyl-5'O-VB12]
0.57% | 5'OH-(octadecyl)-VB12 [octadecyl-5'O-VB12]
37% | 5'OH-(succinylhydrazidyl)-VB12 [succinylhydrazidyl-5'O-VB12]
25% | VB12 -glycine acid [HO-Gly-5'O-VB12]
